The text below walks through data of article PMC7570983, “Synthesis of Novel 2-(Isopropylamino)thiazol-4(5H)-one Derivatives and Their Inhibitory Activity of 11β-HSD1 and 11β-HSD2 in Aspect of Carcinogenesis Prevention” (Molecules, 2020).

The target of this test is T1, 11β-HSD2 (Homo sapiens, UniProt P80365).
T1 construct: gene HSD11B2
T1 sequence (P80365 1-405): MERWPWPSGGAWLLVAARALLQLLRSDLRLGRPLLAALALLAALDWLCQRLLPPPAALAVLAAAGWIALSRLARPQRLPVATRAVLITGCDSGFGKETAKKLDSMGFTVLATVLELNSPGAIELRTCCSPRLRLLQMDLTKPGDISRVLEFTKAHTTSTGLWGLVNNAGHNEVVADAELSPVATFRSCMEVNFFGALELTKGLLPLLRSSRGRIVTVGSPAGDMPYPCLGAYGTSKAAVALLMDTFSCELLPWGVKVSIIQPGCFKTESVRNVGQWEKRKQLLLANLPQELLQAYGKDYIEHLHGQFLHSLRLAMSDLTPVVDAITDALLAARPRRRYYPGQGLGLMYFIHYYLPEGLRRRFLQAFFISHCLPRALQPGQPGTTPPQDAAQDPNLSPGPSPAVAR
Briefly: % inhibition at […], human kidney microsomes, cortisol ELISA. It is filed as cell-based. As to conditions: read-out: % of 11β-HSD2 Inhibition 10 μM/IC50 [μM] ^a.

`CCC1SC(NC(C)C)=NC1=O` (stereo not shown) [3b, 5-Ethyl-2-(isopropylamino)thiazol-4(5H)-one]: the inhibition at 10 µM is 47.1 ± 2.51%.
